Assay results reported in patent US9795593B2, “Use of 3-(3-[1,2,4]-triazolo)-oxatriazolium-5-olate for treating sexual disorders” (LIMITED LIABILITY COMPANY “KONSORTSIUM-PIK”, priority 2014, dated 2017).
Marks after values point to notes of the source that are not given here.

How the values were obtained:
[1] = 7-day-long administration of L-NAME; cited from earlier work
NO-synthase = conditions: 7-day-long administration of L-NAME; cited from earlier work
[2] = system: conscious SHR and Wistar rats; conditions: cited from earlier work
nitric oxide (NO) = experiment: Serum unbound nitric oxide (spectrophotometry, Griss reagent) in the model of arterial hypertension with endothelial dysfunction; type: in vivo, rat; conditions: for NO: rat serum at the end of experiment, M ± m, n = 8
Procedure: (§1) In the model of arterial hypertension with endothelial dysfunction, endothelial NOS blocker N-nitro-L-arginine methyl ester (L-NAME) was administered intraperitoneally, 25 mg/kg, daily, for 7 days. The blocker was administered in 3% sodium chloride in the dose 1 ml/100 g of body weight. This combination of NO-synthase inhibitor with hypertonic solution provides RAAS activation, aldosterone discharge, retention of sodium and water, functional impairment of the vascular endothelium.
(§2) The animals were divided into the arms as follows: 1—intact animals; 2—control group, males (L-NAME+NaCl; physiological saline as placebo); 3—male rats that received AS-6 in the dose 0.5 mg/kg (Dose 1); 4—male rats that received AS-6 in the dose 5 mg/kg (Dose 2); 5—male rats that received AS-6 in the dose 10 mg/kg (Dose 3); 6—virgin female rats (only in the assessment of the sexual activity). Each group included 8 animals.
(§3) Biochemical parameters were assessed with the use of prearranged kits (USCN Life Science Inc., USA, Bender MedSystems GmbH, Austria, R&D Systems, USA). The measurement was performed with the use of multifunctional photometer Synergy-2 (BioTek Instruments, Inc., USA). All studies were conducted in compliance with current laboratory regulations.
(§4) The assessment of endothelin-1, vascular endothelial growth factor and nitric oxide levels was performed in the rats' serum at the end of experiment with the use of immuno-enzyme analysis and spectrophotometric analysis with species-specific (rat-specific) antibodies.
Quantitative measurement of unbound nitric oxide was performed with the use spectrophotometry with R&D Systems kits (USA). The proteins were precipitated with zinc sulphate/sodium hydroxide. Serum supernatant samples of the experimental animals (50 mcL) and standards of known concentrations were introduced into the plate wells. Then, 50 mcL of sample diluent, Griss reagent 1 and Griss reagent 2 were added. The reaction was read at 540 and 690 nm after 10-minute incubation at 37° C.

endothelin-1 (ET-1) = experiment: Serum endothelin-1 (ELISA) in the model of arterial hypertension with endothelial dysfunction; type: in vivo, rat; conditions: for ET-1: rat serum at the end of experiment, M ± m, n = 8
Procedure: as §1, §2, §3, §4
Quantitative measurement of endothelin-1 (ET-1) was performed with the use of ELISA with USCN Life Science Inc. (USA) kits. Serum samples of the experimental animals (50 mcL) and standards of known concentrations were introduced into the plate wells. Then, 50 mcL of detecting solution (reagent A) were introduced. After 1-hour incubation at 37° C., the wells were 3-fold rinsed, and 100 mcL of detecting solution (reagent B) were introduced into each well. Thereafter, the plate was incubated again at 37° C. for 30 minutes. The plate was rinsed with washing buffer 5 times, and 90 mcL of TMB substrate were introduced into each well. After 15-minute incubation at 37° C., 50 mcL of stop-solution were added. The reaction was read at 450 nm.

[3] = system: vascular endothelial growth factor (VEGF); experiment: Serum vascular endothelial growth factor (ELISA) in the model of arterial hypertension with endothelial dysfunction; type: in vivo, rat; conditions: for VEGF: rat serum at the end of experiment, M ± m, n = 8
Procedure: as §1, §2, §3, §4
Quantitative measurement of vascular endothelial growth factor (VEGF) was performed with the use of ELISA with Bender MedSystems GmbH (Austria) kits. Calibration solution 100 mcL, serum samples of the experimental animals (50 mcL) and sample diluent (50 mcL) were introduced into the plate wells. Then, 50 mcL of biotin conjugate were added. After 2-hour incubation at 20° C., the wells were 6 time rinsed, and 100 mcL of streptavidin/horseradish peroxidase conjugate were introduced into each well. Thereafter, the plate was incubated again at 37° C. for 1 hour. The plate was 6 times rinsed with washing buffer, and 100 mcL of TMB substrate were introduced into each well. After 30-minute incubation at 20° C., 100 mcL of stop-solution were added. The reaction was read at 450 and 620 nm.

[4] = system: sexual behaviour in male rats; experiment: Sexual activity of male rats with a receptive female, 30-minute observation after the treatment cycle; type: in vivo, rat; parameters: key to Ejaculation rate / Muzzling, licking of the females: + - present; − - absent; conditions: for Intromission rate / Mounting rate: 30-minute period; for Intromission rate / Mounting rate / Intersession interval / Mounting latency: M ± m; for Intromission rate / Mounting rate / Intersession interval / Mounting latency / Ejaculation rate / Muzzling, licking of the females: n = 8
Procedure: as §1, §2
Testing of the animals' sexual activity was performed after the end of treatment cycle. Tested male was placed into the testing chamber (40×40×30 cm), 5 minutes before the presentation of sexually receptive female rat. One female was placed next to each male. The assessment of sexual behaviour was performed in the dark room at blind red light. The components of sexual activity were visually recorded during a 30-minute period: mounting latency (ML—interval from the female placing into the cage to the first male mounting) and the rate of mountings, intromissions and ejaculations.

[5] = system: purified sGC obtained of the rabbit's lungs; conditions: AS-6 100 mcmol/L, in vitro; cited from earlier work
sGC in the aortic tissue = conditions: aorta of Wistar rats; cited from earlier work
[6] = system: male Wistar rats, model of arterial hypertension with endothelial dysfunction; experiment: Blood pressure and heart rate in rat model of arterial hypertension with endothelial dysfunction (L-NAME + 3% NaCl); type: in vivo; conditions: for DBP / HR / SBP: M ± m, n = 8
Procedure: as §1
The experiments were performed with the use of 40 white male Wistar rats with the baseline body weight 220-240 g and 20 white virgin female rats 180-200 g. The animals were purchased from Rappolovo farm (Russian Academy of Medical Sciences, Saint-Petersburg). Besides mixed fodder, the rats received bread.
AS-6 substance (lot 080909) containing 101.0% of the active ingredient was used, according to the Protocol of Analysis No. 80-Pr, dated by 25 Sep. 2009 (Federal State Unitary Enterprise Special Technology and Construction Bureau “Tekhnolog”). The substance was used for preparation of solutions for daily oral administration based on the physiological saline.
The physiological saline was used as placebo. The solutions were administered daily through the atraumatic metallic feeding tube with fire-polished olive with the use of dosing syringe.
as §2
The measurement of the blood pressure in rats was performed with the use of the system for non-invasive blood pressure measurement for small animals within the complex Polygraph for electrophysiological studies (MP150WSW “BIOPAC Systems, Inc.”, USA.)
Rats were placed into special boxes. HR and BP (SBP and DBP) were recorded several minutes after the stabilization of the measured parameters. The parameters were measured on the tails with the use of piezoelectric probe and corresponding cuff, several minutes following animal placement on the thermostated sheet that maintained the temperature in the chambers within 26-27° C. The functional cardiovascular testing was performed before (at baseline) and after the administration of NOS inhibitor and at the end of treatment.

[7] = system: model of L-NAME-induced NO deficiency; conditions: cited from earlier work
[8] = AS-6 0.5 mg/kg oral daily, After treatment (Day 14)
[9] = AS-6 5 mg/kg oral daily, After treatment (Day 14)
[10] = AS-6 10 mg/kg oral daily, After treatment (Day 14)
[11] = arm AS-6 0.5 mg/kg, Baseline (Day 0), before L-NAME and treatment
[12] = arm AS-6 0.5 mg/kg, Post-dose L-NAME (Day 7), before treatment
[13] = arm AS-6 5 mg/kg, Baseline (Day 0), before L-NAME and treatment
[14] = arm AS-6 5 mg/kg, Post-dose L-NAME (Day 7), before treatment
[15] = arm AS-6 10 mg/kg, Baseline (Day 0), before L-NAME and treatment
[16] = arm AS-6 10 mg/kg, Post-dose L-NAME (Day 7), before treatment
[17] = Nicorandil (4 mg/kg) preconditioning

## COC(=O)[C@@H](N)CCCNC(=N)N[N+](=O)[O-].Cl [L-NAME, N-omega-nitro-L-arginine methyl ester hydrochloride]
[1]
  increase of endothelial dysfunction ratio: 5 fold
NO-synthase
  mean diastolic BP: 146.0±4.2 mm Hg
  mean systolic blood pressure: 191.3±7.1 mm Hg

## [O-]c1n[n+](-c2nc[nH]n2)no1 [AS-6, 3-(3-[1,2,4]-triazolo)-oxatriazolium-5-olate]
[2]
  hypotensive effect: prolonged hypotensive effect
Nitric oxide (NO); exceeded the level of treatment-naive animals at 10 mg/kg
  effect on nitric oxide (NO) production: dose-dependent increase of nitric oxide (NO) production
Nitric oxide (NO); AS-6 0.5 mg/kg
  NO: 8.83 ± 1.06 mcmol/l
Nitric oxide (NO); AS-6 5.0 mg/kg
  NO: 10.75 ± 0.55^ mcmol/l
Nitric oxide (NO); AS-6 10.0 mg/kg
  NO: 14.08 ± 1.25*^ mcmol/l
endothelin-1 (ET-1); most significant at 10 mg/kg, p=0.010 vs. control
  effect on endothelin-1 levels: significant favourable changes of endothelin-1 levels
endothelin-1 (ET-1); AS-6 0.5 mg/kg
  ET-1: 2.48 ± 0.50 pg/mL
endothelin-1 (ET-1); AS-6 5.0 mg/kg
  ET-1: 1.75 ± 0.48 pg/mL
endothelin-1 (ET-1); AS-6 10.0 mg/kg
  ET-1: 0.78 ± 0.29 pg/mL
[3]; 10 mg/kg dose: p=0.116 vs. control
  effect on vascular endothelial growth factor production: dose-dependent trend to the normalization of vascular endothelial growth factor production
[3]; AS-6 0.5 mg/kg
  VEGF: 46.01 ± 2.42 pg/mL
[3]; AS-6 5.0 mg/kg
  VEGF: 79.49 ± 19.75 pg/mL
[3]; AS-6 10.0 mg/kg
  VEGF: 91.95 ± 21.84 pg/mL
[4]; AS-6 10 mg/kg
  increase of number of animals with intromissions vs. control: 4 fold
  number of animals with intromissions: 50%
[4]; AS-6 0.5 and 5 mg/kg
  animals with increased mounting rate vs. control: 40%
  decrease of ML (mounting latency): 1.5 fold
  number of animals with intromissions: 25%
  rats with increased intromission rate: 25%
[4]; Azasidnon 0.5 mg/kg
  Intromission rate: 1.6 ± 1.4
  Mounting rate: 6.6 ± 2.8
  Intersession interval: 8.8 ± 0.9 min
  Mounting latency: 3.9 ± 0.9*^ min
  Ejaculation rate: −
  Muzzling, licking of the females: +
[4]; Azasidnon 5.0 mg/kg
  Intromission rate: 1.4 ± 1.1
  Mounting rate: 7.4 ± 3.1
  Intersession interval: 10.2 ± 2.2 min
  Mounting latency: 4.2 ± 1.9*^ min
  Ejaculation rate: −
  Muzzling, licking of the females: +
[4]; Azasidnon 10.0 mg/kg
  Intromission rate: 3.1 ± 1.5
  Mounting rate: 8.6 ± 2.6
  Intersession interval: 7.5 ± 1.9 min
  Mounting latency: 3.2 ± 1.4*^ min
  Ejaculation rate: −
  Muzzling, licking of the females: +
[4]; all doses
  influence on ejaculation: did not influence
[5]
  sGC activation compared to the basal activity: up to 30 fold
sGC in the aortic tissue
  activation of cGMP synthesis compared to baseline: up to 13 fold
[6]; AS-6 0.5 mg/kg
  effect on SBP and DBP levels: did not affect SBP or DBP levels
[6]; [8]
  DBP: 111.9 ± 5.2 mm Hg
  HR: 420.0 ± 13.7
  SBP: 153.1 ± 7.3 mm Hg
[6]; AS-6 5 mg/kg
  effect on SBP and DBP levels: decrease of elevated DBP and unchanged elevated SBP
[6]; [9]
  DBP: 111.5 ± 7.9 mm Hg
  HR: 435.9 ± 28.9
  SBP: 141.9 ± 7.1 mm Hg
[6]; [10]
  DBP: 102.0 ± 3.2 mm Hg
  HR: 404.4 ± 17.6
  SBP: 123.4 ± 4.2 mm Hg
[6]; AS-6 10 mg/kg, vs. baseline values and experimental model, p<0.05
  effect on blood pressure: normalization of the blood pressure
[6]; [11]
  DBP: 98.7 ± 2.2 mm Hg
  HR: 417.6 ± 17.6
  SBP: 126.2 ± 2.5 mm Hg
[6]; [12]
  DBP: 113.8 ± 4.6 mm Hg
  HR: 351.8 ± 8.7
  SBP: 145.0 ± 3.1 mm Hg
[6]; [13]
  DBP: 97.9 ± 3.2 mm Hg
  HR: 428.2 ± 22.1
  SBP: 123.8 ± 3.4 mm Hg
[6]; [14]
  DBP: 117.0 ± 4.4 mm Hg
  HR: 376.0 ± 15.3
  SBP: 148.6 ± 4.5 mm Hg
[6]; [15]
  DBP: 98.5 ± 4.7 mm Hg
  HR: 393.6 ± 19.1
  SBP: 130.5 ± 4.6 mm Hg
[6]; [16]
  DBP: 120.1 ± 5.0 mm Hg
  HR: 357.1 ± 14.8
  SBP: 149.1 ± 3.4 mm Hg
[6]; control or experimental arm
  changes of the heart rate: No significant changes of the heart rate
[6]; peak at 10 mg/kg after 7 days of treatment
  effect on blood pressure, dose dependence: dose-dependent decrease of blood pressure

## O=C(NCCO[N+](=O)[O-])c1cccnc1 [Nicorandil]
[7]; [17]
  CRP: 0.6 ± 0.1 mg/dL
  NO level: 6.2±0.25 mcmol/L
  endothelial dysfunction ratio (EDR): 1.76±0.18 AU
  myocardium contractility during resistance testing: 77.2±8.3%

## COc1ccc(Cl)cc1C(=O)NCCc1ccc(S(=O)(=O)NC(=O)NC2CCCCC2)cc1 [Glibenclamide]
[7]; Glibenclamide 4 mg/kg, blockade of ATP-dependent potassium channels
  effect on protective effects of preconditioning: neutralized protective effects
